In ChEMBL document CHEMBL3886983, “Pyridinyl and pyrimidinyl sulfoxide and sulfone derivatives” (2016):

Target: Nicotinamide phosphoribosyltransferase (Homo sapiens, UniProt P43490)
Experiment: Biochemical Inhibition Assay: The NAMPT Enzymatic Reaction. The NAMPT enzymatic reactions were carried out in Buffer A (50 mM Hepes pH 7.5, 50 mM NaCl, 5 mM MgCl2, and 1 mM THP) in 96-well V-bottom plates. The compound titrations were performed in a separate dilution plate by serially diluting the compounds in DMSO to make a 100x stock. Buffer A (89 uL) containing 33 nM of NAMPT protein was added to 1 uL of 100x compound plate containing controls (e.g. DMSO or blank). The compound and enzyme mixture was incubated for 15 min at rt, then 10 uL of 10x substrate and co-factors in Buffer A were added to the test well to make a final concentration of 1 uM NAM, […] 5-Phospho-D-ribose 1-diphosphate (PRPP), and 2.5 mM Adenosine 5'-triphosphate (ATP). The reaction was allowed to proceed for 30 min at rt, then was quenched with the addition of 11 uL of a solution of formic acid and L-Cystathionine to make a final concentration of 1% formic acid and 10 uM L-Cystathionine. Background and signal strength was determined by addition (or non-addition) of a serial dilution of NMN to a pre-quenched enzyme and cofactor mix.

Sequence of Nicotinamide phosphoribosyltransferase (P43490 whole entry): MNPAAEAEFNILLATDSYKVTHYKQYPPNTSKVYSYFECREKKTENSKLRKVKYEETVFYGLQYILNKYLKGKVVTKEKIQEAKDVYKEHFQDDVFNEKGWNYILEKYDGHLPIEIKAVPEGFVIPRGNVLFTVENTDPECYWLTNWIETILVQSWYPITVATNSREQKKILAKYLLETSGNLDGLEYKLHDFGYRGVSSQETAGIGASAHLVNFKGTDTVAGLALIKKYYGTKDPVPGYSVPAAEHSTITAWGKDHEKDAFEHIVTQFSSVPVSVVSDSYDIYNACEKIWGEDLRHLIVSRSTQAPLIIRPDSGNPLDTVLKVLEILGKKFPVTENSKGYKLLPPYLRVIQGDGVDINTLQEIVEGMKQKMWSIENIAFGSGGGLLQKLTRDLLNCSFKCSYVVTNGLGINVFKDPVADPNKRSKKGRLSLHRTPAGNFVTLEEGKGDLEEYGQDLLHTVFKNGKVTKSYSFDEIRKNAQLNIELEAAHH

IC50: 0.916 nM
SMILES: CN1CCN(c2ccc(S(=O)(=O)c3ccc(CNC(=O)c4cc5ccncc5o4)nc3)cn2)CC1
